# Measurements published in US20210113499A1, “CERAMIDE MIMICS FOR TREATMENT OF ALZHEIMER'S DISEASE” (University of Kentucky Research Foundation, priority 2019, published 2021).
# Test system: 5×FAD exosomes (Aβ-associated astrosomes)
# Experiment: Incubation of serum exosomes with ceramide analogs or anti-ceramide IgG; vesicle size by nanoparticle tracking analysis (ZetaView)
# Format: biochemical, mouse
# Conditions: for Vesicle size reduced: 5×FAD serum exosomes incubated at 37° C. for 16 h with 50 μM ceramide analog, NTA
# Experimental: Sera were isolated from freshly obtained mouse blood. Blood was drawn through heart puncture and was allowed to clot at room temperature for 30 min. Blood was then centrifuged at 1,800×g for 10 min at 4° C. The clear upper layer was transferred to a fresh tube and centrifuged at 3,000×g for 15 min to pellet residual blood cells. Exosomes were extracted using ExoQuick exosome solution (EXOQ; System Biosciences, Inc., Mountain View, Calif., USA) according to the manufacturer protocol. Briefly, one-fourth milliliter aliquots of serum was treated with 67 μl of ExoQuick exosome solution, followed by incubation for 60 min at 4° C. to precipitate total exosomes. Tubes were then centrifuged at 1,500×g for 30 min. Each exosome pellet was resuspended in 100 μl of PBS with 1× Halt™ Protease Inhibitor Cocktail (Thermo Fisher, Massachusetts, USA). In certain experiments exosomes were labeled with PKH67 Green Fluorescent Dye. The exosomes were labeled with PKH67 Green Fluorescent Cell Linker Kit for General Cell Membrane Labelling (Sigma-Aldrich) according to the manufacturer's protocol. Briefly, ExoQuick pellets were resuspended in PBS, 1 ml of Diluent C (CGLDIL, Sigma-Aldrich) was then added to each sample. As a control, 1 ml of Diluent C after adding the same volume of PBS was used. Next, 4 μl of PKH67 dye was added to 1 ml of Diluent C then mixed with the exosomes and the control, PKH67/Diluent C mixture was ultra-centrifuged before being added to samples. The samples were allowed to incubate <5 min on a rotor plate. One ml of 1% BSA was then added to bind excess dye. Samples were ultra-centrifuged at 110,000×g for 70 min, washed and centrifuged again. For exosomes quantification, nanoparticle tracking analysis (NTA) with the ZetaView PMX110 (Particle Metrix) was used. Briefly, exosomes were resuspended in PBS. Two ml of appropriately diluted samples were injected into the ZetaView cell. The instrument was set to obtain NTA measurements at 11 positions, two cycles at each position. […]
Structure (SMILES),Vesicle size reduced,"Aggregates formed by 5×FAD serum astrosomes associated with Aβ (size distribution, FIG. 2D) (5×FAD exosomes treated with ceramide analog, particle diameter by NTA)"
"CCCCCCCCCCCCCCCC(=O)N(CCO)CCO [B16, N-palmitoyl bisethanolamine]",not,
"CCCCCCCC/C=C\CCCCCCCC(=O)NC(CO)CO [S18, N-oleoyl serinol]",17%,reduced
